Patent publication US20230391772A1, “METHODS AND COMPOSITIONS FOR TARGETED PROTEIN DEGRADATION” (Ranok Therapeutics (Hangzhou) Co. Ltd., priority 2020, published 2023)

Assays:
[1] = target: T1, HSP90a protein (Homo sapiens, UniProt P07900); experiment: HSP90α-binding fluorescent polarization (FP) assay, FITC-geldanamycin probe; conditions: FP competition with FITC-geldanamycin, 5 nM, 120 min at 25° C.
T1 construct: purchased BPS Bioscience 50298
Method: HSP90α-Binding Fluorescent Polarization (FP) Assay
Binding of test compounds to HSP90a protein was measured by fluorescent polarization (FP) using the HSP90a (N-terminal) Assay Kit (BPS Bioscience, #50298), following the manufacturer's instructions, except as noted. Fluorescently labeled HSP90-binding compounds, either the provided FITC-geldanamycin (5 nM final concentration) or RNK04010, a triazolone-based HSP90 binding small molecule labeled with BODIPY through a piperizine-phenyl linker (5 nM final concentration) were employed. A 2.5-fold serial dilution of each test compound ranging from 20 μM to 5.2 nM was assayed for binding to HSP90a. After the final step of adding HSP90a protein to each assay well, plates were mixed by brief shaking, incubated at 25° C. for 120 min for FITC-geldanamycin or 300 min for RNK04010, and fluorescence was measured using a PerkinElmer EnVision Plate Reader.

[2] = test system: NCI-H358 human non-small cell lung cancer; experiment: NCI-H358 CCK-8 proliferation assay; format: cell-based; conditions: NCI-H358 cells, 72 hr
In short: (§1)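 Percent inhibition derived from CCK-8 optical signal, normalised between DMSO-only cells (0%) and cell-free medium containing DMSO as background. Cells: MIA PaCa-2 carrying 2 KRAS(G12C) copies; NCI-H358, NCI-H23 carrying 1 copy apiece. Concentrations spanned 1.02 nM–20 μM in threefold increments.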

[3] = test system: MIA PaCa-2 human pancreatic carcinoma; experiment: MIA PaCa-2 CCK-8 proliferation assay; format: cell-based; conditions: Homo sapiens, MIA PaCa-2, 72 h, MIA PaCa-2 cells
In short: as §1

[4] = target: T1, HSP90a protein; experiment: HSP90α-binding fluorescent polarization (FP) assay, BODIPY-labeled RNK04010 probe; conditions: FP competition with RNK04010 (BODIPY-labeled), 5 nM, 300 min at 25° C.
In short: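 Displacement of a 5 nM fluorescent HSP90 ligand from the N-terminal HSP90a domain by FP. Incubation ran at 25° C: 120 min for the FITC-geldanamycin tracer, 300 min for the BODIPY-conjugated triazolone RNK04010.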

SMILES: CCC(=O)N1CCN(c2nc(N3CCC(CN4CCN(Cc5ccc(-n6c(O)nnc6-c6cc(CC)c(O)cc6O)cc5)CC4)CC3)nc3c2CCN(c2cccc4cccc(Cl)c24)C3)C[C@@H]1CC#N [Compound 133, (S)-2-(4-(7-(8-chloronaphthalen-1-yl)-2-(4-((4-(4-(3-(5-ethyl-2,4-dihydroxyphenyl)-5-hydroxy-4H-1,2,4-triazol-4-yl)benzyl)piperazin-1-yl)methyl)piperidin-1-yl)-5,6,7,8-tetrahydropyrido[3,4-d]pyrimidin-4-yl)-1-propionylpiperazin-2-yl)acetonitrile, trifluoroacetic acid]
- IC50 [1]: 0.1 to 1 µM
- EC50 [2]: 0.1 to 1 µM

SMILES: CCC(=O)N1CCN(c2nc(NCCCNC(=O)C3CCN(Cc4ccc(-n5c(O)nnc5-c5cc(C(C)C)c(O)cc5O)cc4)CC3)nc3c2CCN(c2cccc4cccc(Cl)c24)C3)C[C@@H]1CC#N [Compound 134, (S)—N-(3-((7-(8-chloronaphthalen-1-yl)-4-(3-(cyanomethyl)-4-propionylpiperazin-1-yl)-5,6,7,8-tetrahydropyrido[3,4-d]pyrimidin-2-yl)amino)propyl)-1-(4-(3-(2,4-dihydroxy-5-isopropylphenyl)-5-hydroxy-4H-1,2,4-triazol-4-yl)benzyl)piperidine-4-carboxamide, trifluoroacetic acid]
- IC50 [1]: 0.1 to 1 µM
- EC50 [2]: > 1 µM

SMILES: C=C(F)C(=O)N1CCN(c2nc(N3CCC(CN4CCN(Cc5ccc(-n6c(O)nnc6-c6cc(CC)c(O)cc6O)cc5)CC4)CC3)nc3c2CCN(c2cccc4cccc(Cl)c24)C3)C[C@@H]1CC#N [Compound 135, (S)-2-(4-(7-(8-chloronaphthalen-1-yl)-2-(4-((4-(4-(3-(5-ethyl-2,4-dihydroxyphenyl)-5-hydroxy-4H-1,2,4-triazol-4-yl)benzyl)piperazin-1-yl)methyl)piperidin-1-yl)-5,6,7,8-tetrahydropyrido[3,4-d]pyrimidin-4-yl)-1-(2-fluoroacryloyl)piperazin-2-yl)acetonitrile]
- IC50 [1]: 0.1 to 1 µM
- EC50 [2]: > 1 µM

SMILES: CC(C)c1cc(-c2nnc(O)n2-c2ccc(CN3CCN(C4CCN(c5nc6c(c(N7CCN(C(=O)C(F)(F)F)[C@@H](CC#N)C7)n5)CCN(c5cccc7cccc(Cl)c57)C6)CC4)CC3)cc2)c(O)cc1O [Compound 136, (S)-2-(4-(7-(8-chloronaphthalen-1-yl)-2-(4-(4-(4-(3-(2,4-dihydroxy-5-isopropylphenyl)-5-hydroxy-4H-1,2,4-triazol-4-yl)benzyl)piperazin-1-yl)piperidin-1-yl)-5,6,7,8-tetrahydropyrido[3,4-d]pyrimidin-4-yl)-1-(2,2,2-trifluoroacetyl)piperazin-2-yl)acetonitrile]
- IC50 [1]: > 1 µM
- EC50 [2]: 0.1 to 1 µM

SMILES: C=C(F)C(=O)N1CCN(c2nc(OC[C@@H]3CCN(C(=O)c4ccc5c(c4)CN(C(=O)c4cc(C(C)C)c(O)cc4O)C5)C3)nc3c2CCN(c2cccc4cccc(Cl)c24)C3)C[C@@H]1CC#N [Compound 165, 2-((S)-4-(7-(8-chloronaphthalen-1-yl)-2-(((R)-1-(2-(2,4-dihydroxy-5-isopropylbenzoyl)isoindoline-5-carbonyl)pyrrolidin-3-yl)methoxy)-5,6,7,8-tetrahydropyrido[3,4-d]pyrimidin-4-yl)-1-(2-fluoroacryloyl)piperazin-2-yl)acetonitrile]
- IC50 [1]: 0.1 to 1 µM
- EC50 [3]: > 1 µM

SMILES: C=C(F)C(=O)N1CCN(c2nc(OC[C@@H]3CCN(C(=O)C4CCN(Cc5ccc(-n6c(C(N)=O)nnc6-c6cc(C(C)C)c(O)cc6O)cc5)CC4)C3)nc3c2CCN(c2cccc4cccc(Cl)c24)C3)C[C@@H]1CC#N [Compound 166, 4-(4-((4-((R)-3-(((7-(8-chloronaphthalen-1-yl)-4-((S)-3-(cyanomethyl)-4-(2-fluoroacryloyl)piperazin-1-yl)-5,6,7,8-tetrahydropyrido[3,4-d]pyrimidin-2-yl)oxy)methyl)pyrrolidine-1-carbonyl)piperidin-1-yl)methyl)phenyl)-5-(2,4-dihydroxy-5-isopropylphenyl)-4H-1,2,4-triazole-3-carboxamide]
- IC50 [1]: 0.1 to 1 µM
- EC50 [3]: < 0.1 µM

SMILES: C=C(F)C(=O)N1CCN(c2nc(OC[C@@H]3CCN(C(=O)C4CCN(Cc5ccc(-n6c(O)nnc6-c6cc(CC)c(O)cc6O)cc5)CC4)C3)nc3c2CCN(c2cccc4cccc(Cl)c24)C3)C[C@@H]1CC#N [Compound 167, 2-((S)-4-(7-(8-chloronaphthalen-1-yl)-2-(((R)-1-(1-(4-(3-(5-ethyl-2,4-dihydroxyphenyl)-5-hydroxy-4H-1,2,4-triazol-4-yl)benzyl)piperidine-4-carbonyl)pyrrolidin-3-yl)methoxy)-5,6,7,8-tetrahydropyrido[3,4-d]pyrimidin-4-yl)-1-(2-fluoroacryloyl)piperazin-2-yl)acetonitrile]
- IC50 [1]: < 0.1 µM
- EC50 [3]: 0.1 to 1 µM

SMILES: CC(C)c1cc(-c2nnc(O)n2-c2ccc(CN3CCC(C(=O)N4CC[C@@H](COc5nc6c(c(N7CCN(C(N)=O)[C@@H](CC#N)C7)n5)CCN(c5cccc7cccc(Cl)c57)C6)C4)CC3)cc2)c(O)cc1O [Compound 169, (S)-4-(7-(8-chloronaphthalen-1-yl)-2-(((R)-1-(1-(4-(3-(2,4-dihydroxy-5-isopropylphenyl)-5-hydroxy-4H-1,2,4-triazol-4-yl)benzyl)piperidine-4-carbonyl)pyrrolidin-3-yl)methoxy)-5,6,7,8-tetrahydropyrido[3,4-d]pyrimidin-4-yl)-2-(cyanomethyl)piperazine-1-carboxamide]
- IC50 [1]: < 0.1 µM
- EC50 [3]: 0.1 to 1 µM

SMILES: C=C(F)C(=O)N1CCN(c2nc(OC[C@@H]3CCN(CCCOCCC(=O)NCc4ccc(-n5c(O)nnc5-c5cc(C(C)C)c(O)cc5O)cc4)C3)nc3c2CCN(c2cccc4cccc(Cl)c24)C3)C[C@@H]1CC#N [Compound 170]
- IC50 [1]: 0.1 to 1 µM
- EC50 [3]: > 1 µM

SMILES: C=C(F)C(=O)N1CCN(c2nc(OC[C@@H]3CCN(C(=O)c4cc(C(C)C)c(O)cc4O)C3)nc3c2CCN(c2cccc4cccc(Cl)c24)C3)C[C@@H]1CC#N [Compound 171, 2-((S)-4-(7-(8-chloronaphthalen-1-yl)-2-(((R)-1-(2,4-dihydroxy-5-isopropylbenzoyl)pyrrolidin-3-yl)methoxy)-5,6,7,8-tetrahydropyrido[3,4-d]pyrimidin-4-yl)-1-(2-fluoroacryloyl)piperazin-2-yl)acetonitrile]
- IC50 [1]: > 1 µM
- EC50 [3]: > 1 µM

SMILES: C=CC(=O)N1CCN(c2nc(OC[C@@H]3CCN(C(=O)c4ccc5c(c4)CN(C(=O)c4cc(C(C)C)c(OC)cc4O)C5)C3)nc3c2CCN(c2cccc4cccc(Cl)c24)C3)C[C@@H]1CC#N [Compound 173, 2-((S)-1-acryloyl-4-(7-(8-chloronaphthalen-1-yl)-2-(((R)-1-(2-(2-hydroxy-5-isopropyl-4-methoxybenzoyl)isoindoline-5-carbonyl)pyrrolidin-3-yl)methoxy)-5,6,7,8-tetrahydropyrido[3,4-d]pyrimidin-4-yl)piperazin-2-yl)acetonitrile]
- IC50 [1]: > 1 µM
- IC50 [4]: > 1 µM
- EC50 [3]: > 1 µM

SMILES: C=C(F)C(=O)N1CCN(c2nc(OC[C@@H]3CCN(C(=O)c4cc(CC)c(O)cc4O)C3)nc3c2CCN(c2cccc4cccc(Cl)c24)C3)C[C@@H]1CC#N [Compound 174, 2-((S)-4-(7-(8-chloronaphthalen-1-yl)-2-(((R)-1-(5-ethyl-2,4-dihydroxybenzoyl)pyrrolidin-3-yl)methoxy)-5,6,7,8-tetrahydropyrido[3,4-d]pyrimidin-4-yl)-1-(2-fluoroacryloyl)piperazin-2-yl)acetonitrile]
- IC50 [1]: > 1 µM
- IC50 [4]: > 1 µM
- EC50 [3]: > 1 µM
